Here are results for three molecules from patent US20030109522A1, “Ophthalmologic treatment methods using selective iNOS inhibitors” (priority 2001, published 2003).

Structures are written as SMILES. A value given as a limit tells only on which side of the number the result lay.

One data set deals with retinal ganglion cells. Particulars: rats with chronic moderately elevated IOP; cited from earlier work.
In data set [1] the target is T1, human neuronal constitutive NOS (hncNOS) (Homo sapiens, UniProt P29475).
T1 construct: made in house; host or cells: Sf9 insect cells, baculovirus vector
T1 sequence (P29475 whole entry): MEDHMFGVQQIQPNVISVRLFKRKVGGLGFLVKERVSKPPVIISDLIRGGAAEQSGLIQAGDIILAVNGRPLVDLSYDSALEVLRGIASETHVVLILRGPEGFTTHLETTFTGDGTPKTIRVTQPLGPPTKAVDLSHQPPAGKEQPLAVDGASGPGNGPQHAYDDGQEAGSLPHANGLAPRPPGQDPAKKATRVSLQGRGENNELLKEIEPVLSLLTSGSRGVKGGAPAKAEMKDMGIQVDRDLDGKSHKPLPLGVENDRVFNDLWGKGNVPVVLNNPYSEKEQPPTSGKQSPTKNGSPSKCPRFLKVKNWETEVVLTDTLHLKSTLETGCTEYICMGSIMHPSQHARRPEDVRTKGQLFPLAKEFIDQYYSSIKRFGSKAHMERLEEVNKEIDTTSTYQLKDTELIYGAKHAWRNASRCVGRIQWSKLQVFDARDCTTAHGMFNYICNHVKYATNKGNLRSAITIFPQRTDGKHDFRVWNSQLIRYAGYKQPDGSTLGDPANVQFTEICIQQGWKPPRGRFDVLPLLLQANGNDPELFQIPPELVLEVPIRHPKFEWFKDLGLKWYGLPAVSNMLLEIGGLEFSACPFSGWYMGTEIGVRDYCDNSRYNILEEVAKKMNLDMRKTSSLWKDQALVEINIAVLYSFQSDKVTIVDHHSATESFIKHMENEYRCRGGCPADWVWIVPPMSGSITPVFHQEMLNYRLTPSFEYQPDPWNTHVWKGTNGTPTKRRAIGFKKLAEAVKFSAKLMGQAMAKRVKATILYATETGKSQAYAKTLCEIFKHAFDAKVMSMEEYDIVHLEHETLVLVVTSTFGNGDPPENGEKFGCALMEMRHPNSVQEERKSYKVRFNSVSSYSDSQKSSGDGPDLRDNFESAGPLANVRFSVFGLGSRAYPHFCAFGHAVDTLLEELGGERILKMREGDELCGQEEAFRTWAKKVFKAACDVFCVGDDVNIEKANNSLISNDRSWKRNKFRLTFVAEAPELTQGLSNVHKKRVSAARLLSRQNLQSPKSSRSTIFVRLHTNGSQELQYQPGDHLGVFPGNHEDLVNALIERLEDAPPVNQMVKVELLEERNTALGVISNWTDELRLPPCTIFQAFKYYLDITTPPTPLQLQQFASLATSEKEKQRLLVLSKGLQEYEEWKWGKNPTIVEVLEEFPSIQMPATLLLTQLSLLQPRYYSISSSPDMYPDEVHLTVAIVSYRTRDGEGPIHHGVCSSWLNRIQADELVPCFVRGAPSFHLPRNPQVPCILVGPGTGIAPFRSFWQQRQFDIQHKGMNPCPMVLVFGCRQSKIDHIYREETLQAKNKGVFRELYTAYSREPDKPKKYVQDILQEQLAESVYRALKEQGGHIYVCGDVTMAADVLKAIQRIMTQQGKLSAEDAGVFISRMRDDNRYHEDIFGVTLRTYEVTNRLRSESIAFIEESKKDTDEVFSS
Kind of data set: Citrulline assay for nitric oxide synthase, hncNOS. Format: biochemical. Particulars: averages across all experiments and all lots; 30 μM L-arginine.
Method: (§3) Citrulline Assay for Nitric Oxide Synthase
(§4) To measure NOS activity, 10 μL of enzyme is added to 40 μL of 50 mM Tris (pH 7.6) in the presence or absence of test compounds and the reaction initiated by the addition of 50 μL of a reaction mixture containing 50 mM Tris (pH 7.6), 2.0 mg/mL bovine serum albumin, 2.0 mM DTT, 4.0 mM CaCl2, 20 μM FAD, 100 μM tetrahydrobiopterin, 0.4 mM NADPH and 60 μL-arginine containing 0.9 μCi of L-[2,3-^3H]-arginine. The final concentration of L-arginine in the assay is 30 μM. For hecNOS or hncNOS, calmodulin is included at a final concentration of 40-100 nM. Following incubation at 37° C. for 15 minutes, the reaction is terminated by addition of 400 μL of a suspension (1 part resin, 3 parts buffer) of Dowex 50W X-8 cation exchange resin in a stop buffer containing 10 mM EGTA, 100 mM HEPES, pH 5.5 and 1 mM L-citrulline. After mixing the resin is allowed to settle and L-[2,3-^3H]-Citrulline formation is determined by counting aliquots of the supernatant with a liquid scintillation counter.

The target in another data set is T2, hecNOS (Homo sapiens, UniProt P29474).
T2 construct: made in house; host or cells: Sf9 insect cells, baculovirus vector
Kind of data set: Assay for time dependent inhibition, hecNOS. In kind it is biochemical. The method, then: (§1) Assay for Time Dependent Inhibition
(§2) Aliquots (10 μL) are removed at 0, 10,21 and 60 minutes and immediately added to a citrulline assay enzyme reaction mixture containing L-[2,3-^3H]-arginine and a final L-arginine concentration of 30 μM in a final volume of 100 μL. The reaction is allowed to proceed for 15 minutes at 37° C. and terminated by addition of stop buffer and chromatography with Dowex 50W X-8 cation exchange ion exchange resin as described for the citrulline NOS assay. The % inhibition of NOS activity by an inhibitor was taken as the percent inhibition in activity compared to control enzyme preincubated for the same time in the absence of inhibitor.

For the next data set, the target named is T3, hncNOS (Homo sapiens, UniProt P29475).
T3 construct: made in house; host or cells: Sf9 insect cells, baculovirus vector
Nature of the data set: Assay for time dependent inhibition, hncNOS. In kind it is biochemical. To be noted: 0.9 μM. The method, then: as §1, §2

Data set [2] concerns LPS-induced increase in plasma nitrite/nitrate levels. Nature of the data set: In vivo assay, endotoxin-treated rats. To be noted: Rattus norvegicus, po, administered orally, plasma nitrite/nitrate 5 hours post-treatment, read-out: ED50. The method, then: Plasma nitrite/nitrate levels can be determined 5 hours post-treatment.
Data set [3] concerns the target T4, Human inducible NOS (hiNOS) (Homo sapiens, UniProt P35228).
T4 construct: made in house; host or cells: Sf9 insect cells, baculovirus vector
Nature of the data set: Citrulline assay for nitric oxide synthase, hiNOS. Format: biochemical. To be noted: averages across all experiments and all lots; 30 μM L-arginine.
Method: as §3, §4

For another data set, the target named is T5, hiNOS (Homo sapiens, UniProt P35228).
T5 construct: made in house; host or cells: Sf9 insect cells, baculovirus vector
Nature of the data set: Assay for time dependent inhibition, hiNOS. Format: biochemical. Particulars: 2.2 μM. The method, then: as §1, §2

For data set [4], the system named is nitrite production in human cartilage explants. Nature of the data set: Human cartilage explant assay (IL-1 induced nitrite production). Format: cell-based. To be noted: Homo sapiens; inhibition of nitrite production, IL-1 stimulated explants. The method, then: Human Cartilage Explant Assay
Bone pieces are rinsed twice with Dulbecco's Phosphate Buffered Saline (GibcoBRL) and once with Dulbecco's Modified Eagles Medium (GibcoBRL) and placed into a petri dish with phenol red free Minimum Essential Medium (MEM) (GibcoBRL). Cartilage was cut into small explants of approximately 15-45 mg in weight and one or two explants per well are placed into either 96 or 48 well culture plates with 200-500 μL of culture media per well. The culture media was either a custom modification of Minimum Essential Medium(Eagle) with Earle's salts (GibcoBRL) prepared without L-Arginine, without L-Glutamine and without phenol red or a custom modification of serumless Neuman and Tytell (GibcoBRL) medium prepared without L-arginine, without insulin, without ascorbic acid, without L-glutamine and without phenol red. Both are supplemented before use with 100 μM L-Arginine (Sigma), 2 mM L-glutamine, 1×HL-1 supplement (BioWhittaker), […] ascorbic acid (Sigma) and 150 pg/ml recombinant human IL-1[…] (RD Systems) to induce nitric oxide synthase. Compounds are then added in 10 μL aliquots and the explants incubated at 37° C. with 5% CO2 for 18-24 hours. The day old supernatant is then discarded and replaced with fresh culture media containing recombinant human IL-1 ? and compound and incubated for another 20-24 hours. […] All samples are done in quadruplicate. Unstimulated controls are cultured in media in the absence of recombinant human IL-1[…]. IC50 values (Table I) are determined from plotting the percent inhibition of nitrite production at six different concentrations of inhibitor.

Data set [5] addresses T6, human endothelial constitutive NOS (hecNOS) (Homo sapiens, UniProt P29474).
T6 construct: made in house; host or cells: Sf9 insect cells, baculovirus vector
Nature of the data set: Citrulline assay for nitric oxide synthase, hecNOS. Format: biochemical. Particulars: averages across all experiments and all lots; 30 μM L-arginine.
Method: as §3, §4

T4 sequence (P35228 whole entry): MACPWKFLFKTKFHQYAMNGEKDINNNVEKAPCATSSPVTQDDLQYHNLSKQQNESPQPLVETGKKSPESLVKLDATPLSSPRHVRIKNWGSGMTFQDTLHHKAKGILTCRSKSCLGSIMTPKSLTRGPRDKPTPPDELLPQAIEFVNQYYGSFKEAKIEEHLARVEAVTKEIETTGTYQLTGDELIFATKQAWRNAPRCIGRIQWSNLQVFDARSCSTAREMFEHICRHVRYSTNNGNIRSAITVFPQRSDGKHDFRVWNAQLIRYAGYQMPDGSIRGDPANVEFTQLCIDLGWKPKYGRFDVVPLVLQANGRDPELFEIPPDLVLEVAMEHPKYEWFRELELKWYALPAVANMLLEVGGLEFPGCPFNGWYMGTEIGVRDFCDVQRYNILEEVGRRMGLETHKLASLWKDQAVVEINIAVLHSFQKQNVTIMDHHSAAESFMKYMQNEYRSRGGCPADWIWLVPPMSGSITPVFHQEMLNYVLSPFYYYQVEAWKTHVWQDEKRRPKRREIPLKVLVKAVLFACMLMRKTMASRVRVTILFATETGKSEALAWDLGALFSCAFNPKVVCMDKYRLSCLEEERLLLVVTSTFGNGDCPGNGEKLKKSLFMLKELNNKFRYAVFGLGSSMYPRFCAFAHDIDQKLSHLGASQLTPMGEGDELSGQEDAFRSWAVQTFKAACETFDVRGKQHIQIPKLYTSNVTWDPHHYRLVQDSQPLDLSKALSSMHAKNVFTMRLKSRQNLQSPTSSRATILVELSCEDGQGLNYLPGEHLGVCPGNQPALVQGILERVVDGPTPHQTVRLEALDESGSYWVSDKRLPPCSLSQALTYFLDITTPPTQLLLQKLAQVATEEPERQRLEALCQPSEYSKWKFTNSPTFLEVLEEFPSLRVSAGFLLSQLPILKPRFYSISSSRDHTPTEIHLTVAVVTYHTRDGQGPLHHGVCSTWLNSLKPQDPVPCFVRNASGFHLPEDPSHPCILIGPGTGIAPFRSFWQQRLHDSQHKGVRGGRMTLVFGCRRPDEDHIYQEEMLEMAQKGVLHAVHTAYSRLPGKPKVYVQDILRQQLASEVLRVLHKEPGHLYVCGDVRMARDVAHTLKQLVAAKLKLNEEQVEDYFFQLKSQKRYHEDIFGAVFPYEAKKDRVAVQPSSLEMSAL
T6 sequence (P29474 2-1203): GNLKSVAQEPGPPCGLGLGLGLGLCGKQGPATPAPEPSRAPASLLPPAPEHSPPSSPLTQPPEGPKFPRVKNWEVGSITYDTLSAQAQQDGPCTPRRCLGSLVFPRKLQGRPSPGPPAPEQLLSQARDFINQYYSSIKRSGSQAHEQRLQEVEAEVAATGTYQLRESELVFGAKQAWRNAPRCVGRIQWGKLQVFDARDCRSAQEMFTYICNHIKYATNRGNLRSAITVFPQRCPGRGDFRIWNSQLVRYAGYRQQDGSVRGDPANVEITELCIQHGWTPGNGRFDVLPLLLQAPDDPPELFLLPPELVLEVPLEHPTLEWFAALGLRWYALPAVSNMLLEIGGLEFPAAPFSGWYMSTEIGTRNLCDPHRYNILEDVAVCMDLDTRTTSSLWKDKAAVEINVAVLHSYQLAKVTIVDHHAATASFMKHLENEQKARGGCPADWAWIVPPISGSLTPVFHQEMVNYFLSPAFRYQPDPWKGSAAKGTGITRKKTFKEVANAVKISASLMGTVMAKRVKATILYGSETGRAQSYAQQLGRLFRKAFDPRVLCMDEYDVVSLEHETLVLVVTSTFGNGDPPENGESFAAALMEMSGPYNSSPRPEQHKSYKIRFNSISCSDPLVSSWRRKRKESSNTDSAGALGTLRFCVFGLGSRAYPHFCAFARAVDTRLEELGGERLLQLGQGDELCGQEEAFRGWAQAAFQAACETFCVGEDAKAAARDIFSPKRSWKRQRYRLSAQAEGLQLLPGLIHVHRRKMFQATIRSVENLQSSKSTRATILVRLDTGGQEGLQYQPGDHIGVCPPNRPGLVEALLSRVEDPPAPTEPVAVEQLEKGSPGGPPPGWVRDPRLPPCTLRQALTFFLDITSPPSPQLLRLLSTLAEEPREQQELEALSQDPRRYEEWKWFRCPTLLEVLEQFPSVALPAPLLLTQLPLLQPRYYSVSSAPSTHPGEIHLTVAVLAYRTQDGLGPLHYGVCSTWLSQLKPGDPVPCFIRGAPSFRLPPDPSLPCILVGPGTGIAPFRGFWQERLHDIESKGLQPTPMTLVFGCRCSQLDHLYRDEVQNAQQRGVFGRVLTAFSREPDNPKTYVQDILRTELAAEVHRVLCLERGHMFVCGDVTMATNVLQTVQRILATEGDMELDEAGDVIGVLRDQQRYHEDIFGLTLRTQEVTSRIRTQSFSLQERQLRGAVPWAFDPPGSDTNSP

For the molecule `N=C(N)NN` [aminoguanidine], the “loss of retinal ganglion cells” value in the data set with retinal ganglion cells is “blocks loss of retinal ganglion cells”.

On to `N=C1CCCC[C@H](C/C=C\C[C@H](N)C(=O)O)N1` [Example AA, (2S,4Z)-2-amino-6-[(2R)-hexahydro-7-imino-1H-azepin-2-yl]-4-hexenoic Acid], for which the half-inhibitory concentration (IC50) in data set [1] was < 3 µM; in data set [3], < 3 µM; in [4], < 3 µM; in [5] it was > 5 µM. For the same molecule, the inhibition at 2.2 µM on hecNOS (2.2 μM, 60 min preincubation) worked out at 55%; against hiNOS (21 min preincubation) it was 96%; on hiNOS (60 min preincubation) it was 97%. This molecule returned an inhibition at 5.7 µM at hecNOS (5.7 μM, 21 min preincubation) of 58%. In addition, the inhibition at 0.9 µM against hncNOS (21 min preincubation) stood at 34%; at hncNOS (60 min preincubation) it was 0%. Further, the ED50 in [2] was < 10 mg/kg.

On to `CC(=NO)NC/C(F)=C\CC[C@H](N)C(=O)O` [Example G, (2S,5E)-2-amino-6-fluoro-7-[(1-hydroximinoethyl)amino]-5-heptenoic Acid], for which the melting point is 198 to 200 °C. For the same molecule, the ED50 in data set [2] is < 0.1 mg/kg.

A word on the IC50: it is the concentration that inhibits the measured activity by half. A higher IC50 goes with weaker potency in that assay. The term inhibition denotes the relative decrease from the control value, in per cent. A word on the ED50: it is the dose at which the effect has come halfway, by size or by number of responders. The term melting point denotes the temperature of the solid-liquid transition.
